Measurements published in patent US20050137223A1, “Glucoimidazole and polyhydroxycyclohexenyl amine derivatives to treat gaucher disease” (Amicus Therapeutics, Inc., priority 2003, published 2005).
Residue numbers refer to the chain shown, from its start. pIC50: −log10 of the molar value. Read-outs that look alike come from different tables or passages of the source.

What was measured:
GCase [1] = target: T1, GCase (Homo sapiens, UniProt P04062); assay: Inhibitory activity against GCase (4-methylumbelliferyl β-glucoside substrate); type: biochemical; settings: for IC50: human GCase, 3 mM 4-MU β-glucoside, pH 5.2, 37° C., 30 min; for increase of inhibitory potency relative to 2-PE-GIZ: phenylethyl group replaced with octyl or dimethylbutyl at the same position
T1 sequence (P04062 40-536): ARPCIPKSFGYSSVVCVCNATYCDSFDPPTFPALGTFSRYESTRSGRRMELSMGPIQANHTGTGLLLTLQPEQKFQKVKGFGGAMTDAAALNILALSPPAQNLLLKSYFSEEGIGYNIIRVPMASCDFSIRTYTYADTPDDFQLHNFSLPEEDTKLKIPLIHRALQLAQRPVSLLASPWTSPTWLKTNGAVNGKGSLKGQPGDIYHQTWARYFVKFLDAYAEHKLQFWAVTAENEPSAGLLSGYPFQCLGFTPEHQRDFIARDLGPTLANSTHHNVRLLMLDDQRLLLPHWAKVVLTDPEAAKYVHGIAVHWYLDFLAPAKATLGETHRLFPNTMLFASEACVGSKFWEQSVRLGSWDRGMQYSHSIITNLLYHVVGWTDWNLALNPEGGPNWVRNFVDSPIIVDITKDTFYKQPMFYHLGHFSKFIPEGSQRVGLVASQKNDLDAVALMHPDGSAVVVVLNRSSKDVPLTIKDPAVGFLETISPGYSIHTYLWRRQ
Procedure: Methods. […] The compounds were added to each reaction mixture individually at the final concentration indicated. After incubation with the diluted human GCase at 37° C. for 30 min, the reaction was stopped by addition of 0.2 M glycine buffer, pH 10.8, the released 4-methylumbelliferone was determined by a fluoremeter at excitation wavelength of 355 nm and emission wavelength at 460 nm, respectively. The relative enzyme activity was calculated as a percentage to those of reactions without inhibitors. IC50 was calculated using Prism sigmoid plot.

GCase [2] = target: T1, GCase; settings: literature values (Ogawa et al.); read-out: IC50 against GCase; cited from earlier work
[3] = shortly after the start of the treatment; cited from earlier work
[4] = target: T2, GCase in fibroblasts from Gaucher patients with N370S/N370S mutation (Homo sapiens, UniProt P04062, N409S); assay: Chaperone activity for GCase in Gaucher patient fibroblasts (residual enzyme activity); type: cell-based; settings: cultured with compound for 4 days
T2 construct: endogenous in cells; host or cells: fibroblasts from Gaucher patients homozygous for N370S
T2 sequence (P04062 40-536 N409S): T1 sequence (P04062 40-536) with N370S
Procedure: Methods. Fibroblasts established from Gaucher patients with N370S/N370S mutation were cultured in DMEM medium supplemented with 10% fetal bovine serum and antibiotics at 37° C. under 5% CO2. The GIZ was added into the culture medium at the final concentrations for 4 days prior to the assay. After washing the cells with phosphate-buffered saline, the cells were harvested and homogenized in the presence of 0.25% (w/v) sodium taurocholate and 0.1% (v/v) Triton X-100 in McIlvaine buffer (pH 5.2, Reaction Buffer), and 10 μl of the lysate was used for the determination of residual enzyme activity. The activity of the GCase was determined with 3 mM 4-MU-β-Glc in the Reaction Buffer at 37° C. for 1 hr as conduritol B epoxide (CBE)-sensitive activity in parallel assays without or with pre-incubation with CBE at 1.25 mM for 30 min at room temperature. Protein concentrations in the cell lysates were determined using micro BCA protein assay kit from Pierce.

| Compound | IC50 (GCase [1]) | increase of inhibitory potency relative to 2-PE-GIZ (GCase [1]) | also measured |
| --- | --- | --- | --- |
| CCCCCCCCc1cn2c(n1)[C@H](O)[C@@H](O)[C@H](O)[C@H]2CO [2-Octyl GIZ, (5R,6R,7S,8S)-5-Hydroxymethyl-2-n-octyl-5,6,7,8-tetrahydroimidazo[1,2-a]pyridine-6,7,8-triol] | 0.07 nM | approximately 15 fold | – |
| CCCCCCCCN[C@@H]1C=C(CO)[C@@H](O)[C@H](O)[C@H]1O [N-octyl valienamine] | – | – | pIC50 (GCase [2]): ~6.52 |
| CC(C)(C)CCc1cn2c(n1)[C@H](O)[C@@H](O)[C@H](O)[C@H]2CO [2-Dimethylbutyl GIZ, (5R,6R,7S,8S)-5-Hydroxymethyl-2-(3,3-dimethylbutyl)-5,6,7,8-tetrahydroimidazo[1,2-a]pyridine-6,7,8-triol] | 0.03 nM | ~37 fold | – |
| CCCCN1C[C@H](O)[C@@H](O)[C@H](O)[C@H]1CO [N-butyl 1-deoxynojirimycin (NB-DNJ), N-butyl 1-deoxynojirimycin] | – | – | patients with diarrhea (most frequent adverse effect) [3]: 79% |
| OC[C@@H]1[C@@H](O)[C@H](O)[C@@H](O)c2nc(CCc3ccccc3)cn21 [2-Phenylethyl GIZ, (5R,6R,7S,8S)-5-hydroxymethyl-2-phenethyl-5,6,7,8-tetrahydroimidazo[1,2-a]pyridine-6,7,8-triol] | 1.1 nM | – | – |
| OC[C@@H]1[C@@H](O)[C@H](O)[C@@H](O)c2nccn21 [GIZ, (5R,6R,7S,8S)-5-hydroxymethyl-5,6,7,8-tetrahydroimidazo[1,2-a]pyridine-6,7,8-triol] | 87 nM | – | increase of residual enzyme activity in patient cells [4]: approximately 2 fold; optimal concentration for the maximum enhancement [4]: ~300 µM |
